In PubChem BioAssay (NCI):
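1) Cells in 96-well plates. 2) Compound, 48 h, 5 concentrations. 3) Linear interpolation between surrounding doses. 4) Unreached endpoint = highest concentration. GI50 is the concentration that inhibits growth by half. Definition used: TGI = concentration required for complete inhibition of growth.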

Legend:
Test in all cases: inhibition of tumour cell growth, NCI panel, 48 h
[1] = test system: CAKI-1 renal
[2] = test system: NCI/ADR-RES ovarian
[3] = test system: COLO 205 colon
[4] = test system: OVCAR-8 ovarian
[5] = test system: KM12 colon
[6] = test system: 786-0 renal
[7] = test system: SF-295 CNS
[8] = test system: SN12C renal
[9] = test system: HOP-62 NSCLC
[10] = test system: SK-MEL-5 melanoma
[11] = test system: SK-OV-3 ovarian
[12] = test system: HS 578T breast
[13] = test system: EKVX NSCLC
[14] = test system: ACHN renal
[15] = test system: SF-268 CNS
[16] = test system: SW-620 colon
[17] = test system: SF-539 CNS
[18] = test system: HCT-15 colon
[19] = test system: NCI-H460 lung
[20] = test system: PC-3 prostate
[21] = test system: NCI-H23 lung
[22] = test system: UO-31 renal
[23] = test system: HOP-92 NSCLC
[24] = test system: CCRF-CEM leukemia
[25] = test system: MDA-MB-231 breast
[26] = test system: RXF 393 renal
[27] = test system: U251 CNS
[28] = test system: TK-10 renal
[29] = test system: OVCAR-3 ovarian

COc1ccc(-n2c(SCC(=O)Nc3ccc(-c4nc5ccccc5[nH]4)cc3)nc3ccccc3c2=O)cc1
TGI [1]: > 100 µM | GI50 [2]: 16.7 µM | TGI [2]: > 100 µM | GI50 [3]: 28.3 µM | TGI [3]: 76.6 µM | GI50 [4]: 18.1 µM | TGI [4]: 39.6 µM | GI50 [5]: 51.4 µM | TGI [5]: > 100 µM | GI50 [6]: 17.7 µM | TGI [6]: 34.2 µM | GI50 [7]: 13.3 µM | TGI [7]: 27.9 µM | GI50 [8]: 11.3 µM | TGI [8]: 25.6 µM | GI50 [9]: 23.3 µM | TGI [9]: 59.6 µM | GI50 [10]: 14 µM | TGI [10]: 30.4 µM | GI50 [11]: > 100 µM | TGI [11]: > 100 µM | GI50 [12]: 21.6 µM | TGI [12]: 71.5 µM | GI50 [13]: 47.2 µM | TGI [13]: > 100 µM | GI50 [14]: 17.1 µM | TGI [14]: 33.7 µM | GI50 [15]: 42.9 µM | TGI [15]: > 100 µM | GI50 [16]: 6.63 µM | TGI [16]: 42.5 µM | GI50 [17]: 14.1 µM | TGI [17]: 27.8 µM | GI50 [18]: 2.95 µM | TGI [18]: 12 µM | GI50 [19]: 3.39 µM | TGI [19]: 12.1 µM | GI50 [20]: 18 µM | TGI [20]: 62.9 µM | GI50 [21]: 10.2 µM | TGI [21]: 35.1 µM | GI50 [22]: 11.8 µM | TGI [22]: 29.1 µM | GI50 [23]: 12.7 µM | TGI [23]: 31.3 µM | GI50 [24]: 6.15 µM | TGI [24]: > 100 µM | GI50 [25]: 16.2 µM | TGI [25]: 49.6 µM | GI50 [26]: 12.7 µM | TGI [26]: 27.3 µM | GI50 [27]: 15.1 µM | TGI [27]: 31.5 µM | GI50 [28]: 21.6 µM | TGI [28]: 42 µM | GI50 [29]: 18 µM | TGI [29]: 39.7 µM
